This assay has as its target T1, wild-type (WT) P450 BM3 heme domain (Priestia megaterium, UniProt P14779).
T1 sequence (P14779 1-464 limits assumed): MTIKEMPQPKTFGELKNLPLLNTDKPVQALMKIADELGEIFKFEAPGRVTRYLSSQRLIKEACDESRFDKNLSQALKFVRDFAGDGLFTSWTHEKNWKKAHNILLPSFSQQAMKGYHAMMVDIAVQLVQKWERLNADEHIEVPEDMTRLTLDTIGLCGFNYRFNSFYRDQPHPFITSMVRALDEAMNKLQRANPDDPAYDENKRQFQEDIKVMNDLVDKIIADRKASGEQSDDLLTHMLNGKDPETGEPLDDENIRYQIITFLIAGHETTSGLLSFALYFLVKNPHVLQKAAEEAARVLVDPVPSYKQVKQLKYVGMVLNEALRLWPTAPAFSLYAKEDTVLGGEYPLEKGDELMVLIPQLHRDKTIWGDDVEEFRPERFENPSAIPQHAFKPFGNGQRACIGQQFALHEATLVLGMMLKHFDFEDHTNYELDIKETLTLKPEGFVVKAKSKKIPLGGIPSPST
As to the kind of experiment: optical titration, type-I difference spectra. In kind it is binding.

The text below walks through data of publication PMC3486690 (Journal of inorganic biochemistry, 2012).

`CCCCCCCCCCCC(=O)O` [LA, lauric acid] gave a Kd of 280 ± 25 µM.
